Row | Compound | melting point
1 | CC(C)CN(Cc1ccc(-c2csc(CN(CC(=O)O)C(=O)Nc3ccccc3)n2)cc1)c1ccc(C(C)(C)C)cc1 [Example 1-27] | 119 °C
2 | CCCC(CCC)c1ccc(N(Cc2ccc3nc(-c4csc(CN(CC(=O)O)Cc5nc(C(C)(C)C)cs5)n4)oc3c2)C(C)C)cc1 [Example 1-138] | 98 to 100 °C
3 | CCCC(CCC)c1ccc(OCc2ccc(-c3csc(COc4ccc(C(=O)O)cc4)n3)cc2)cc1 [Example 1-49] | 199 to 202 °C
4 | CC(C)CN(Cc1ccc(-c2csc(CN(CC(=O)O)Cc3ccccc3)n2)cc1)c1ccc(C(C)(C)C)cc1 [Example 1-23] | 133 °C
5 | CCC(CC)N(Cc1ccc(-c2csc(CN3Cc4ccccc4C[C@H]3C(=O)O)n2)cc1)c1ccc(C(C)C)cc1 [Example 1-35] | 110 to 113 °C
6 | CCC(CC)c1ccc(N(Cc2ccc(-c3csc(COc4cc(C(=O)O)ccc4N)n3)cc2)C(C)C)cc1 [Example 1-90] | 179 to 181 °C
7 | CCCC(CCC)c1ccc(OCc2ccc(-c3csc(CN4Cc5ccccc5C[C@H]4C(=O)O)n3)cc2)cc1 [Example 1-46] | 77 to 82 °C
8 | CCC(CC)c1ccc(N(Cc2ccc(-c3csc(COc4cccc(C(=O)O)c4)n3)cc2)C(C)C)cc1 [Example 1-91] | 165 to 167 °C
9 | CCC(CC)c1ccc(N(Cc2ccc(-c3csc(CN(C)[C@@H](Cc4ccccc4)C(=O)O)n3)cc2)C(C)C)cc1 [Example 1-22] | 80 °C
10 | CCCC(CCC)c1ccc(N(C)Cc2ccc(-c3csc(COc4ccc(C(=O)O)cc4)n3)cc2)cc1 [Example 1-5] | 161 to 163 °C
11 | CC(C)CN(Cc1ccc(-c2csc(CN(CC(=O)O)C(=O)N3CCOCC3)n2)cc1)c1ccc(C(C)(C)C)cc1 [Example 1-59] | 138 °C
12 | CC(C)c1ccc(Cn2c(-c3csc(CN4CCc5ccc(C(=O)O)cc5C4)n3)nc3ccc(N4CCOCC4)cc32)cc1 [Example 1-185] | 141 to 143.2 °C
13 | CCCC(CCC)c1ccc(OCc2ccc(-c3csc(CN(CCN)C(=O)c4ccc(C(=O)O)cn4)n3)cc2)cc1.Cl | 227 to 229 °C

Now from value to compound:

Row | melting point | Compound
14 | 146 to 147 °C | CN(Cc1ccc(C2CCC(F)CC2)cc1)c1ccc(-c2csc(CN(CC(=O)O)Cc3ccccc3)n2)cc1 (stereo not shown) [Example 3-33]
15 | 155 to 156 °C | CC(C)CCN(CC(=O)O)Cc1nc(-c2ccc(N(C)Cc3ccc(CC(C)C)cc3)cc2)cs1 [Example 3-93]
16 | 74 to 78 °C | CCN(Cc1ccc(C(C)C)cc1)c1ccc(-c2csc(CN(CC(=O)O)Cc3ccc(C(C)C)cc3)n2)cc1 [Example 3-44]
17 | 176 to 183 °C | CCC(CC)c1ccc2c(c1)nc(-c1csc(COc3ccc(C(=O)O)cc3)n1)n2CC1CCCCC1 [Example 3-132]
18 | 176 to 180 °C | CN(Cc1ccc(C2CCCCC2)cc1)c1ccc(-c2csc(CN3CCCC(C(=O)O)C3)n2)cc1 (stereo not shown) [Example 3-66]
19 | 167 to 170 °C | CN(Cc1ccc(-c2ccccc2)cc1)c1ccc(-c2csc(CN(CC(=O)O)Cc3ccccc3)n2)cc1 [Example 3-37]
20 | 164 to 166 °C | CCCC(CCC)c1ccc(OCc2ccc(-c3csc(CN(CC(=O)O)CC(=O)Nc4ccc(C(C)C)cc4)c3)cc2)cc1 [Example 4-27]
21 | 127 to 132 °C | CCC(CC)c1ccc2c(c1)nc(-c1csc(COc3ccc(C(=O)O)cc3)n1)n2Cc1ccc(C(C)=O)cc1 [Example 3-130]
22 | 143 °C | CN(Cc1ccc(SCC(C)(C)C)cc1)c1ccc(-c2csc(CN(CC(=O)O)Cc3ccccc3)n2)cc1 [Example 3-41]
23 | 104 to 110 °C | CC(C)CN(Cc1nc(-c2ccc(N(C)Cc3ccc(C4CCCCC4)cc3)cc2)cs1)S(=O)(=O)CC(=O)O [Example 3-104]
24 | 142 to 146 °C | CCC(CC)c1ccc(N(Cc2ccc(-c3ccc(CN(CC(=O)O)Cc4nc5ccccc5[nH]4)s3)cc2)C(C)C)cc1 [Example 4-21]
25 | 103 to 104 °C | CCCC(CCC)c1ccc(COc2ccc(-c3csc(CN(CC(=O)O)Cc4cscn4)n3)c(C)c2)cc1 [Example 3-121]
